≈ marks a conversion by molar mass, not a printed value. Like-named read-outs stand apart in the source and are kept apart here.
Tests used:
[1] = tested on: Candida albicans ATCC 11651; assay: In vivo systemic Candida infection in mice, primary assay; parameters: species or system Candida albicans; CF-1 female mice; conditions: Candida albicans, 150 mg/kg per day, read-out: % Survival
Outline: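 CF-1 female mice (20 g, 10 per group) were infected IV with 0.2 ml of 1×10^7/ml C. albicans ATCC 11651, then given test compound subcutaneously at 50 or 150 mg/kg/day at 1 and 6 h post-infection and once daily for three more days. Survival was followed for 21 days against infected untreated mice; ≥70% protection at 14 days was scored active.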

Venturia inaequalis = assay: Example A apple scab; format: in vivo; conditions: read-out: disease control rating, Ex. A
Outline: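 First, compounds are taken up in acetone amounting to 6% of the final volume. Next, they are suspended in purified water with 250 ppm TREM 014 at 100 or 20 ppm. Finally, seedlings of apple are sprayed until run-off.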

[2] = tested on: Cercosporidium personatum; assay: Example B Peanut Late Leafspot; format: in vivo; conditions: Nothopassalora personata, read-out: disease control rating, Ex. B
Outline: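 Dose 100 or 20 ppm; vehicle acetone 6% v/v final in water + 250 ppm surfactant; applied by spraying peanut seedlings to run-off.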

Botrytis cinerea = assay: Example C bean grey mold; format: in vivo; conditions: Botrytis cinerea, 24 h, read-out: disease control rating, Ex. C
Outline: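 At 20 or 100 ppm, each compound was applied as an aqueous suspension (acetone 6% final; TREM 014 250 ppm) sprayed onto young broad bean plants to the point of run-off.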

[3] = tested on: Erysiphe graminis f. sp. tritici; assay: Example D wheat powdery mildew; format: in vivo; conditions: Blumeria graminis, 144 h, read-out: disease control rating, Ex. D
Outline: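 First, compound taken up in acetone, 6% of the end volume. Next, suspended in water with 250 ppm polyhydric alcohol esters at 100 or 20 ppm. Last, applied to wheat seedlings until run-off.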

Pyricularia oryzae = assay: whole plant or invertebrate; format: in vivo; conditions: Pyricularia oryzae, 120 h; for pest or weed control at 100 ppm: read-out: disease control rating, Ex. E, 100 PPM
Rhizoctonia solani [4] = assay: Example F rice sheath blight; format: in vivo; conditions: Rhizoctonia solani, 144 h, read-out: disease control rating, Ex. F
Outline: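 Application rates were 100 or 20 ppm, delivered as a foliar spray to the point of run-off on rice seedlings. The formulation used 6% acetone in water with 250 ppm surfactant.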

Puccinia recondita = assay: Example G wheat leaf rust; format: in vivo; conditions: read-out: disease control rating, Ex. G
Phytophthora infestans = assay: whole plant or invertebrate; format: in vivo; conditions: Phytophthora infestans, in Solanum lycopersicum, read-out: disease control rating, Ex. H, 100 PPM
Plasmorpara viticola = assay: Example I grape downy mildew; format: in vivo; conditions: read-out: disease control rating, Ex. I
Outline: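 First, each compound is taken up in acetone amounting to 6% of the final volume. It is then suspended in purified water containing 250 ppm of the polyhydric alcohol ester surfactant TREM 014, at 100 or 20 ppm. Finally, the suspension is sprayed onto grape seedlings until run-off.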

Pythium aphanadermatum = assay: Example J cucumber damping off; format: in vivo; parameters: key to phytotoxicity entry, Ex. J: P: disease control was not measured due to phytoxicity; conditions: 5 kg/ha; for pest or weed control at 5000 g/ha: Pythium, 336 h, read-out: disease control rating, Ex. J
Protocol: […] Seeds and soil were then inoculated with a mixture of sand, cereal and mycelium of the fungus Pythium aphanadermatum, causal agent of cucumber damping off, and incubated in a growth chamber at 30° C. for 14 days. Disease ratings were then made.

Rhizoctonia solani [5] = assay: Example K cotton blight; format: in vivo; conditions: 336 h, 5 kg/ha, read-out: disease control rating, Ex. K
Protocol: […] Seeds and soil were then inoculated with a mixture of sand, cereal and mycelium of the fungus Rhizoctonia solani, causal agent of cotton blight, and incubated in a growth chamber at 30° C. for 14 days. Disease ratings were then made.

Sclerotium rolfsii = assay: Example M southern blight; format: in vivo; conditions: Agroathelia rolfsii, 336 h; 5 kg/ha; read-out: disease control rating, Ex. M
Protocol: […] Seeds and soil were then inoculated with a mixture of sand, cereal and mycelium of the fungus Sclerotium rolfsii, causal agent of sourthern blight, and incubated in a growth chamber at 30° C. for 14 days. Disease ratings were then made.

[6] = tested on: Candida albicans ATCC 11651; assay: In vitro antifungal MIC, microtiter broth dilution; conditions: Candida albicans, ATCC11651, 24 h, read-out: MIC values, C. albicans, 30°, 24 hours
[7] = tested on: Aspergillus fumigatus ATCC 28214; assay: In vitro antifungal MIC, microtiter broth dilution; conditions: Aspergillus fumigatus, ATCC28214, 24 h, read-out: MIC values, A. fumigatus, 30°, 24 hours
[8] = tested on: Fusarium oxysporum f. sp. cucumerinum; assay: Example L cucumber wilt; format: in vivo; conditions: 336 h, 5 kg/ha, read-out: disease control rating, Ex. L
Protocol: […] Seeds and soil were then inoculated with a mixture of sand, cereal and mycelium of the fungus Fusarium oxysporum f. sp. cucumerinum, causal agent of cucumber wilt, and incubated in a growth chamber at 30° C. for 14 days. Disease ratings were then made.

SMILES	responders at 150 mg/kg ([1]; ATCC11651, 168 h, day 7)	responders at 150 mg/kg ([1]; ATCC11651, 336 h, day 14)	responders at 150 mg/kg ([1]; ATCC11651, 504 h, day 21)	pest or weed control at 100 ppm (Venturia inaequalis)	pest or weed control at 100 ppm [2]	pest or weed control at 100 ppm (Botrytis cinerea)	pest or weed control at 100 ppm [3]	pest or weed control at 100 ppm (Pyricularia oryzae)	pest or weed control at 100 ppm (Rhizoctonia solani [4])	pest or weed control at 100 ppm (Puccinia recondita)	pest or weed control at 100 ppm (Phytophthora infestans)	pest or weed control at 100 ppm (Plasmorpara viticola)	pest or weed control at 5000 g/ha (Pythium aphanadermatum)	pest or weed control at 5000 g/ha (Rhizoctonia solani [5])	pest or weed control at 5000 g/ha (Sclerotium rolfsii)	MIC [6]	MIC [7]	pest or weed control at 5000 g/ha [8]	also measured
C=C(c1ccccc1Cl)C(O)(Cn1cncn1)c1ccccc1F (centres unmarked) [Example 620]	100%	100%	90%	100%	100%	96%	98%	51%	100%	100%	0%	0%	0%	0%	0%	0.03 µg/mL (≈ 0.0873 µM)	0.05 µg/mL (≈ 0.145 µM)	–	–
C=C(c1ccc(F)cc1)C(O)(CCCC)Cn1cncn1 (centres unmarked) [Example 6]	50%	10%	0%	0%	82%	84%	98%	0%	0%	96%	23%	0%	0%	0%	0%	1.6 µg/mL (≈ 5.53 µM)	25 µg/mL (≈ 86.4 µM)	–	–
C=C(c1ccccc1)C(O)(Cn1cncn1)c1ccc(F)cc1 (centres unmarked) [Example 49, 2-(4-Fluorophenyl)-3-phenyl-1-(1H-1,2,4-triazol-1-yl)-3-buten-2-ol]	100%	90%	60%	89%	100%	62%	100%	76%	96%	100%	0%	0%	0%	–	–	0.03 µg/mL (≈ 0.097 µM)	12.5 µg/mL (≈ 40.4 µM)	0%	–
C=C(c1ccc(Cl)cc1Cl)C(O)(Cn1cncn1)c1ccc(Cl)cc1Cl (centres unmarked) [Example 100]	100%	50%	30%	100%	100%	96%	83%	95%	80%	100%	0%	83%	–	0%	0%	0.03 µg/mL (≈ 0.0699 µM)	3.2 µg/mL (≈ 7.46 µM)	–	phytotoxicity entry, Ex. J (Pythium aphanadermatum): P
C=C(c1ccc(F)cc1)C(O)(Cn1ncnc1I)c1ccccc1F (centres unmarked) [Example 1377]	–	–	–	100%	100%	96%	92%	58%	100%	100%	0%	44%	0%	–	–	1.6 µg/mL (≈ 3.53 µM)	100 µg/mL (≈ 221 µM)	0%	–
C=C(c1cccc(F)c1)C(O)(Cn1cncn1)c1ccc(Cl)cc1 (centres unmarked) [Example 17]	100%	90%	70%	–	–	89%	–	0%	81%	–	0%	42%	0%	0%	0%	0.03 µg/mL (≈ 0.0873 µM)	12.5 µg/mL (≈ 36.4 µM)	–	pest or weed control at 20 ppm (Venturia inaequalis; 20 PPM): 80%; pest or weed control at 20 ppm ([2]; 20 PPM): 100%; pest or weed control at 20 ppm (Botrytis cinerea; 20 PPM): 57%; pest or weed control at 20 ppm ([3]; 20 PPM): 95%; pest or weed control at 20 ppm (Pyricularia oryzae; read-out: disease control rating, Ex. E, 20 PPM): 0%; pest or weed control at 20 ppm (Rhizoctonia solani [4]; 20 PPM): 0%; pest or weed control at 20 ppm (Puccinia recondita; 20 PPM): 100%
C=C(c1ccccc1Cl)C(O)(Cn1cncn1)c1ccccc1Cl (centres unmarked) [Example 622]	100%	100%	100%	100%	100%	84%	99%	0%	100%	100%	0%	26%	0%	0%	0%	0.03 µg/mL (≈ 0.0833 µM)	0.1 µg/mL (≈ 0.278 µM)	–	–
C=C(c1ccc(Cl)cc1Cl)C(O)(Cn1cncn1)c1ccc(Cl)cc1 (centres unmarked) [Example 101]	100%	90%	60%	100%	100%	94%	83%	0%	80%	100%	0%	100%	0%	0%	0%	0.03 µg/mL (≈ 0.076 µM)	12.5 µg/mL (≈ 31.7 µM)	–	–
OC(Cn1cncn1)(c1ccc(F)cc1)C1(c2ccccc2)CO1 (centres unmarked) [Example 1527]	100%	70%	20%	0%	100%	93%	100%	–	35%	100%	0%	0%	0%	–	–	0.4 µg/mL (≈ 1.23 µM)	6.3 µg/mL (≈ 19.4 µM)	0%	–

From patent publication US4965280A, “Antifungal carbinols” (E. I. Du Pont de Nemours and Company, priority 1989, dated 1990)
